Test results taken from patent US20260297085A1, “1 H-PYRROLO[2,3-B]PYRIDIN-4-YL]-2-OXOPYRROLIDINE-3-CARBONITRILE DERIVATIVES AS TYROSINE KINASE 2 (TYK2) INHIBITORS FOR THE TREATMENT OF INFLAMMATORY DISEASES” (BIOGEN MA INC., priority 2023, published 2026).
Where a name gives a salt, the structure may show the parent alone.

Tests used:
[1] = molecular target: T1, human TYK2 kinase domain (JH1) (Homo sapiens, UniProt P29597); test: JH1 biochemical assay for TYK2 (ADP-Glo kinase assay, recombinant JH1 catalytic domain, JAK3-974 peptide, 10 μM ATP); conditions: JH1 kinase domain, ADP-Glo
T1 construct: recombinantly generated catalytic kinase (also known as JH1) domain of human JAK1, JAK2, JAK3 and TYK2
T1 sequence (P29597 897-1176 limits assumed): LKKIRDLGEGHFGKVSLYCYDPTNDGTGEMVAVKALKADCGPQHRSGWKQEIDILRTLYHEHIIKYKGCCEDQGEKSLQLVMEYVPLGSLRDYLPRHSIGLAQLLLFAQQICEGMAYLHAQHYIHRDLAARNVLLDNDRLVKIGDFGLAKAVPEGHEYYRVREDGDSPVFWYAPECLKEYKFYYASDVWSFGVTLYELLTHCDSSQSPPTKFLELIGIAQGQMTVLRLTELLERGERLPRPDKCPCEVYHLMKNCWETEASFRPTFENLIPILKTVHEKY
Outline: (§1)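 ADP-Glo luminescence with 50 μM peptide and 100 min reactions: JAK1 4 nM with JAK3-342 peptide; JAK2, JAK3 and TYK2 at 0.2, 0.3 and 2 nM with JAK3-974 peptide. Compounds tested from 10 or 1 μM top, 11 points, 3-fold. IC50 from a 4-parameter logistic fit of normalized activity.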

[2] = molecular target: T2, human JAK1 kinase domain (JH1) (Homo sapiens, UniProt P23458); test: JH1 biochemical assay for JAK1 (ADP-Glo kinase assay, recombinant JH1 catalytic domain, JAK3-342 peptide, 35 μM ATP); conditions: JH1 kinase domain, ADP-Glo
T2 construct: recombinantly generated catalytic kinase (also known as JH1) domain of human JAK1, JAK2, JAK3 and TYK2
Outline: as §1

[3] = molecular target: T3, human JAK2 kinase domain (JH1) (Homo sapiens, UniProt O60674); test: JH1 biochemical assay for JAK2 (ADP-Glo kinase assay, recombinant JH1 catalytic domain, JAK3-974 peptide, 15 μM ATP); conditions: JH1 kinase domain, ADP-Glo
T3 construct: recombinantly generated catalytic kinase (also known as JH1) domain of human JAK1, JAK2, JAK3 and TYK2
Outline: as §1

[4] = molecular target: T4, human JAK3 kinase domain (JH1) (Homo sapiens, UniProt P52333); test: JH1 biochemical assay for JAK3 (ADP-Glo kinase assay, recombinant JH1 catalytic domain, JAK3-974 peptide, 4 μM ATP); conditions: JH1 kinase domain, ADP-Glo
T4 construct: recombinantly generated catalytic kinase (also known as JH1) domain of human JAK1, JAK2, JAK3 and TYK2
Outline: as §1

[5] = molecular target: Tyk2 kinase activity on STAT4 in NK92 cells (Homo sapiens, UniProt P29597); test: pSTAT4 cell assay (MSD; NK92 cells, 30 ng/mL IL2 stimulation); type: cell-based; conditions: 30 ng/mL IL2, 15 minutes
Outline: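 Compound treatment of starved NK92 cells ran 1 hr before a 15-minute, 30 ng/mL IL2 pulse; lysates went to an MSD anti-STAT4 antibody assay, with curves fitted by 4-parameter logistic model.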

[6] = molecular target: JAK2 kinase activity on STAT5 in TF1 cells (Homo sapiens, UniProt O60674); test: pSTAT5 cell assay (MSD; TF1 cells, 30 ng/mL IL-3 stimulation); type: cell-based; conditions: 30 ng/mL IL-3, 15 minutes
Outline: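 IC50 from a 4-parameter logistic fit of normalized pSTAT5 signal, measured by MSD in lysates of TF1 cells. Cells were serum-starved, exposed to compound for 1 h (top concentration 10 μM, four-fold, 10 points), then given IL-3 at 30 ng/mL for 15 min.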

[7] = molecular target: JAK1 kinase activity on STAT3 in TF1 cells (Homo sapiens, UniProt P23458); test: pSTAT3 cell assay (MSD; TF1 cells, 30 ng/mL IL-6 stimulation); type: cell-based; conditions: 30 ng/mL IL-6, 15 minutes
Outline: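 Serum starvation, 1 h compound (10 pt, 4-fold from 10 μM), IL-6 15 min, lysis. pSTAT3 read by MSD immunoassay, anti-STAT3 Abs. Normalized % activity vs log[cpd], 4-PL fit → IC50.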

Sequence of JAK2 kinase activity on STAT5 in TF1 cells (O60674 whole entry): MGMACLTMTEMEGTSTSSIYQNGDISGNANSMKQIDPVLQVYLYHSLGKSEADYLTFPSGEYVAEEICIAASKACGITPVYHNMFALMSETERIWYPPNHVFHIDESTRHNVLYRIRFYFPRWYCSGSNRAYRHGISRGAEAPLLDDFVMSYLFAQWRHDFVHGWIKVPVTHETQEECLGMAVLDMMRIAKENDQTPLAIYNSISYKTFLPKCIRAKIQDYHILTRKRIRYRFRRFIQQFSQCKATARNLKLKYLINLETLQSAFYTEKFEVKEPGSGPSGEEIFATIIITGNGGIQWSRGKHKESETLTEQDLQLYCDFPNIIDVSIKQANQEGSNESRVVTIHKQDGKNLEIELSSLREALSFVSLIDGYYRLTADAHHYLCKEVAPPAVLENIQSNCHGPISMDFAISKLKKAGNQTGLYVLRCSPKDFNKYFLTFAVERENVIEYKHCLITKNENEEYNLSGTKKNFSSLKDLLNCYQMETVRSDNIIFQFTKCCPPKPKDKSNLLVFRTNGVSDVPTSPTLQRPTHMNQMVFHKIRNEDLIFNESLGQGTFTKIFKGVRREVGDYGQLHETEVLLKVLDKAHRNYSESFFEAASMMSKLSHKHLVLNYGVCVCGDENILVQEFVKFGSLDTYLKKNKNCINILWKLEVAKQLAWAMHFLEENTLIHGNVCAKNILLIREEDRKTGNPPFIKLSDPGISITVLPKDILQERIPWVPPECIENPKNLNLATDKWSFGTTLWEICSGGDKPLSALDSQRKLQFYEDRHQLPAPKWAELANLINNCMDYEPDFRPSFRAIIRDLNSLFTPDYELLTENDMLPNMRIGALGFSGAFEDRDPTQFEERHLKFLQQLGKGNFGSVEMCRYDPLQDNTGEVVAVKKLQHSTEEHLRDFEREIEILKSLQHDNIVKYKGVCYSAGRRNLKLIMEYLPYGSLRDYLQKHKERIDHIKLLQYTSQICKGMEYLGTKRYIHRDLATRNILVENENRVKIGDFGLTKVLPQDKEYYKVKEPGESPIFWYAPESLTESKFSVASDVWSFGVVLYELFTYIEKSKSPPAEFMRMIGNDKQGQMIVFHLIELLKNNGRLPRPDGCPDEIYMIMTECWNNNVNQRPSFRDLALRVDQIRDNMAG
Sequence of JAK1 kinase activity on STAT3 in TF1 cells (P23458 whole entry): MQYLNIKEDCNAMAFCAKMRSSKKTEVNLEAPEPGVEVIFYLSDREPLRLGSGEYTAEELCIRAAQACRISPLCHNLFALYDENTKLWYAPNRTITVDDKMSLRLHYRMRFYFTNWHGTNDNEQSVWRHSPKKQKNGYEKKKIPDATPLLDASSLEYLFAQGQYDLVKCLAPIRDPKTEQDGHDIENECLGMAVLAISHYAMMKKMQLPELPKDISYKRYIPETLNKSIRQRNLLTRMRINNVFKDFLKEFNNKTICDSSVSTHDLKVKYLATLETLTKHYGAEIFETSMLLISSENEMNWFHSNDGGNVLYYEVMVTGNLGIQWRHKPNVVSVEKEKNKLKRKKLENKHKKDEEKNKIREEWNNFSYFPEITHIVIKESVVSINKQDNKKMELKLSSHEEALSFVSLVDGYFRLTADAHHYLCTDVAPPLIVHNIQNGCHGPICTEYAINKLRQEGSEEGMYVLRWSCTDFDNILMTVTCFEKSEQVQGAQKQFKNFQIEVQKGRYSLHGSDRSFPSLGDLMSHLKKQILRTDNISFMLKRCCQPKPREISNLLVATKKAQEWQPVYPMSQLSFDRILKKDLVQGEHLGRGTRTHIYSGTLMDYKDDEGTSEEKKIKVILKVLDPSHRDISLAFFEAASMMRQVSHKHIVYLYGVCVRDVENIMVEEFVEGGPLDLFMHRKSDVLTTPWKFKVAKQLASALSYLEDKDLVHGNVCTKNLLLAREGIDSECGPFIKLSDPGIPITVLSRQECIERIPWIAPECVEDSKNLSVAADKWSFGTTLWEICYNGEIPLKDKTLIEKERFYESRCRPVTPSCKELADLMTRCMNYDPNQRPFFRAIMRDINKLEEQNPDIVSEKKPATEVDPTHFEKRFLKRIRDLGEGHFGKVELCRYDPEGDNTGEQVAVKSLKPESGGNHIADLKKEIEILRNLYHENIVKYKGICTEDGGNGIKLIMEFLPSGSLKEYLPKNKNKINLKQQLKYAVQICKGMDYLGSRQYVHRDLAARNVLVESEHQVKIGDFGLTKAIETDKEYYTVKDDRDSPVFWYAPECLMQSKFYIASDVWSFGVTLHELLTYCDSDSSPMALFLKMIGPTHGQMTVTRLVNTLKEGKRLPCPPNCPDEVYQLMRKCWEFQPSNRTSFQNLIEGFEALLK
Sequence of Tyk2 kinase activity on STAT4 in NK92 cells (P29597 whole entry): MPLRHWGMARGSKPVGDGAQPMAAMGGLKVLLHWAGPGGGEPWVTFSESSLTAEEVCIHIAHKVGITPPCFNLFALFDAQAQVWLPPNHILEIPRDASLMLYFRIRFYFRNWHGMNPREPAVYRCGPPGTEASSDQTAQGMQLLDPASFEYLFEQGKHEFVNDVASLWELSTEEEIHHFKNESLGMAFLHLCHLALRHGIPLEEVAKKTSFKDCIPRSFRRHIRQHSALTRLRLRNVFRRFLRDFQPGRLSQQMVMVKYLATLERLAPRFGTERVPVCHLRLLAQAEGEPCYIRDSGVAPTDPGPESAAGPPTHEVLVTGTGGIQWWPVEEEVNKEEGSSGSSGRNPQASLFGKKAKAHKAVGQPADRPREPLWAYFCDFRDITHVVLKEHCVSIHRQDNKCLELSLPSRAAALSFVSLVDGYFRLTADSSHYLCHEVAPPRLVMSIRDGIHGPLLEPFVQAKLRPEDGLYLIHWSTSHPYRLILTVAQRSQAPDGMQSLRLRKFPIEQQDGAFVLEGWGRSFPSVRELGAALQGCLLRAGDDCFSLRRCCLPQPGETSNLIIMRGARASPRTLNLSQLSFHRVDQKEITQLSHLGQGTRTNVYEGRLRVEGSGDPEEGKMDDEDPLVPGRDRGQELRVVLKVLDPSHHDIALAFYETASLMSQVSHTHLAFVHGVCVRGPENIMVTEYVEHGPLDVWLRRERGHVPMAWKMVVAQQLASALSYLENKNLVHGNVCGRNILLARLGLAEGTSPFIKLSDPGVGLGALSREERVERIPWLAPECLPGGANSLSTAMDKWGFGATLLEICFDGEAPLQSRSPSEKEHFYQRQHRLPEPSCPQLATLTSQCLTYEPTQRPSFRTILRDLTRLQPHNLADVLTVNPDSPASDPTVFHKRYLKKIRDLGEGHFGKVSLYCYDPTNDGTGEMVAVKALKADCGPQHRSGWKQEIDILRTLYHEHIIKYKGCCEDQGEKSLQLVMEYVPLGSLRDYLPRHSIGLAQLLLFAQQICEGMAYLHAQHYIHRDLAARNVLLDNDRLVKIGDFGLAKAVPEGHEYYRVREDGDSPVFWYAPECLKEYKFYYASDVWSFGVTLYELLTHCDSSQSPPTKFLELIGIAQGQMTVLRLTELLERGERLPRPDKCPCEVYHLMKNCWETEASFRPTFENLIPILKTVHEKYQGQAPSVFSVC
T4 sequence (P52333 822-1111 limits assumed): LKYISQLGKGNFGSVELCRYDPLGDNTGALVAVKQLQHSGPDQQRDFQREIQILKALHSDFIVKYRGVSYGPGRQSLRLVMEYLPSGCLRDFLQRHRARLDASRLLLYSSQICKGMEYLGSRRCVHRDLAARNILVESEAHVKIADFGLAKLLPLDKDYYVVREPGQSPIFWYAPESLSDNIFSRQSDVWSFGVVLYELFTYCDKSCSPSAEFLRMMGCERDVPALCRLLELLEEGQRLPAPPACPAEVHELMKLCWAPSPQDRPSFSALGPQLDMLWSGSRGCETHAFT
T2 sequence (P23458 875-1153 limits assumed): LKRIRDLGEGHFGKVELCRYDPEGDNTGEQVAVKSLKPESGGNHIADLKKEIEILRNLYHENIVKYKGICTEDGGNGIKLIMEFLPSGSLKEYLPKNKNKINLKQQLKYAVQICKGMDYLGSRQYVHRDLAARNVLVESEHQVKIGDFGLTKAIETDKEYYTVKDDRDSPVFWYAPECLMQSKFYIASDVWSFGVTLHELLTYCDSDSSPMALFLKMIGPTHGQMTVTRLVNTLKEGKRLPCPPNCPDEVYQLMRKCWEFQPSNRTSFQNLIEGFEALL
T3 sequence (O60674 849-1124 limits assumed): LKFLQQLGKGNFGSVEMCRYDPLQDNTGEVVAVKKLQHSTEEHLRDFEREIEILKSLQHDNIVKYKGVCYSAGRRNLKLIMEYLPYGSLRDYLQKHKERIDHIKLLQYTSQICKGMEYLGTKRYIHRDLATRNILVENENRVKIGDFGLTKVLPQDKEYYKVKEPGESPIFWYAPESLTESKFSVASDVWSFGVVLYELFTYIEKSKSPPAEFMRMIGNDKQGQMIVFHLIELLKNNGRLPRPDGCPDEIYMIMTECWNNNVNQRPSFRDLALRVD

SMILES | IC50 [1] | IC50 [2] | IC50 [3] | IC50 [4] | IC50 [5] | IC50 [6] | IC50 [7]
C[C@@H]1CN(c2ccnn3cc(-c4ccc(C(F)(F)F)nc4)cc23)C(=O)[C@]1(C#N)C1CC1 [Example 74, (3R,4S)-3-cyclopropyl-4-methyl-2-oxo-1-(6-(6-(trifluoromethyl)pyridin-3-yl)pyrrolo[1,2-b]pyridazin-4-yl)pyrrolidine-3-carbonitrile] | 0.005 to 0.02 µM | 0.1 to 1 µM | 1 to 5 µM | 0.1 to 1 µM | > 0.1 µM | > 10 µM | 5 to 10 µM
Cc1cc(-c2cc3c(N4C[C@@H](C)[C@@](C#N)(C5CC5)C4=O)ccnn3c2)ccn1 [Example 77, (3R,4S)-3-cyclopropyl-4-methyl-1-(6-(2-methylpyridin-4-yl)pyrrolo[1,2-b]pyridazin-4-yl)-2-oxopyrrolidine-3-carbonitrile] | < 0.005 µM | < 0.1 µM | 0.1 to 1 µM | 0.1 to 1 µM | 0.05 to 0.1 µM | 1 to 5 µM | 0.1 to 1 µM
C[C@@H]1CN(c2ccnn3cc(-c4ccc(=O)n(C)c4)cc23)C(=O)[C@]1(C#N)C1CC1 [Example 83, (3R,4S)-3-cyclopropyl-4-methyl-1-(6-(1-methyl-6-oxo-1,6-dihydropyridin-3-yl)pyrrolo[1,2-b]pyridazin-4-yl)-2-oxopyrrolidine-3-carbonitrile] | < 0.005 µM | < 0.1 µM | 0.1 to 1 µM | 0.1 to 1 µM | 0.05 to 0.1 µM | 5 to 10 µM | 1 to 5 µM
CC(=O)Nc1cncc(-c2cc3c(N4C[C@@H](C)[C@@](C#N)(C5CC5)C4=O)ccnn3c2)c1 [Example 90, N-(5-(4-((3R,4S)-3-cyano-3-cyclopropyl-4-methyl-2-oxopyrrolidin-1-yl)pyrrolo[1,2-b]pyridazin-6-yl)pyridin-3-yl)acetamide] | 0.005 to 0.02 µM | 0.1 to 1 µM | 0.1 to 1 µM | 0.1 to 1 µM | > 0.1 µM | > 10 µM | 5 to 10 µM
C[C@@H]1CN(c2ccnn3cc(-c4ccnc(C#N)c4)cc23)C(=O)[C@]1(C#N)C1CC1 [Example 93, 4-(4-((3R,4S)-3-cyano-3-cyclopropyl-4-methyl-2-oxopyrrolidin-1-yl)pyrrolo[1,2-b]pyridazin-6-yl)picolinonitrile] | 0.005 to 0.02 µM | 0.1 to 1 µM | 0.1 to 1 µM | 0.1 to 1 µM | > 0.1 µM | > 10 µM | 5 to 10 µM
C[C@@H]1CN(c2ccnn3cc(-c4cnn(C5COC5)c4)cc23)C(=O)[C@]1(C#N)C1CC1 [Example 97, (3R,4S)-3-cyclopropyl-4-methyl-1-(6-(1-(oxetan-3-yl)-1H-pyrazol-4-yl)pyrrolo[1,2-b]pyridazin-4-yl)-2-oxopyrrolidine-3-carbonitrile] | < 0.005 µM | < 0.1 µM | < 0.1 µM | < 0.1 µM | 0.02 to 0.05 µM | 1 to 5 µM | 1 to 5 µM
C[C@@H]1CN(c2ccnn3cc(-c4cnc(C(F)F)s4)cc23)C(=O)[C@]1(C#N)C1CC1 [Example 101, (3R,4S)-3-cyclopropyl-1-(6-(2-(difluoromethyl)thiazol-5-yl)pyrrolo[1,2-b]pyridazin-4-yl)-4-methyl-2-oxopyrrolidine-3-carbonitrile trifluoroacetate] | 0.005 to 0.02 µM | 0.1 to 1 µM | 0.1 to 1 µM | 0.1 to 1 µM | > 0.1 µM | > 10 µM | 1 to 5 µM

Results, then the compound that gave them:

IC50 [1] | IC50 [2] | IC50 [3] | IC50 [4] | IC50 [5] | IC50 [6] | IC50 [7] | SMILES
0.005 to 0.02 µM | 0.1 to 1 µM | 0.1 to 1 µM | 0.1 to 1 µM | > 0.1 µM | > 10 µM | 1 to 5 µM | C[C@@H]1CN(c2ccnn3cc(-c4ccnc(F)c4)cc23)C(=O)[C@]1(C#N)C1CC1 [Example 73, (3R,4S)-3-cyclopropyl-1-(6-(2-fluoropyridin-4-yl)pyrrolo[1,2-b]pyridazin-4-yl)-4-methyl-2-oxopyrrolidine-3-carbonitrile]
< 0.005 µM | < 0.1 µM | 0.1 to 1 µM | 0.1 to 1 µM | 0.05 to 0.1 µM | > 10 µM | 1 to 5 µM | C[C@@H]1CN(c2ccnn3cc(-c4cnc5[nH]ncc5c4)cc23)C(=O)[C@]1(C#N)C1CC1 [Example 75, (3R,4S)-1-(6-(1H-pyrazolo[3,4-b]pyridin-5-yl)pyrrolo[1,2-b]pyridazin-4-yl)-3-cyclopropyl-4-methyl-2-oxopyrrolidine-3-carbonitrile]
0.005 to 0.02 µM | 0.1 to 1 µM | 0.1 to 1 µM | 0.1 to 1 µM | > 0.1 µM | > 10 µM | > 10 µM | C[C@@H]1CN(c2ccnn3cc(-c4ccn(C)c(=O)c4)cc23)C(=O)[C@]1(C#N)C1CC1 [Example 79, (3R,4S)-3-cyclopropyl-4-methyl-1-(6-(1-methyl-2-oxo-1,2-dihydropyridin-4-yl)pyrrolo[1,2-b]pyridazin-4-yl)-2-oxopyrrolidine-3-carbonitrile]
0.005 to 0.02 µM | 0.1 to 1 µM | 0.1 to 1 µM | 0.1 to 1 µM | > 0.1 µM | > 10 µM | 5 to 10 µM | C[C@@H]1CN(c2ccnn3cc(-c4ccc(F)nc4)cc23)C(=O)[C@]1(C#N)C1CC1 [Example 81, (3R,4S)-3-cyclopropyl-1-(6-(6-fluoropyridin-3-yl)pyrrolo[1,2-b]pyridazin-4-yl)-4-methyl-2-oxopyrrolidine-3-carbonitrile]
0.005 to 0.02 µM | 0.1 to 1 µM | 1 to 5 µM | 0.1 to 1 µM | > 0.1 µM | > 10 µM | 5 to 10 µM | C[C@@H]1CN(c2ccnn3cc(-c4cncc(F)c4)cc23)C(=O)[C@]1(C#N)C1CC1 [Example 84, (3R,4S)-3-cyclopropyl-1-(6-(5-fluoropyridin-3-yl)pyrrolo[1,2-b]pyridazin-4-yl)-4-methyl-2-oxopyrrolidine-3-carbonitrile]
0.005 to 0.02 µM | 0.1 to 1 µM | 1 to 5 µM | 0.1 to 1 µM | > 0.1 µM | > 10 µM | 5 to 10 µM | C[C@@H]1CN(c2ccnn3cc(-c4ccc(C#N)nc4)cc23)C(=O)[C@]1(C#N)C1CC1 [Example 86, 5-(4-((3R,4S)-3-cyano-3-cyclopropyl-4-methyl-2-oxopyrrolidin-1-yl)pyrrolo[1,2-b]pyridazin-6-yl)picolinonitrile trifluoroacetate]
< 0.005 µM | < 0.1 µM | 0.1 to 1 µM | 0.1 to 1 µM | 0.02 to 0.05 µM | 1 to 5 µM | 0.1 to 1 µM | C[C@@H]1CN(c2ccnn3cc(-c4ccc5nccn5c4)cc23)C(=O)[C@]1(C#N)C1CC1 [Example 88, (3R,4S)-3-cyclopropyl-1-(6-(imidazo[1,2-a]pyridin-6-yl)pyrrolo[1,2-b]pyridazin-4-yl)-4-methyl-2-oxopyrrolidine-3-carbonitrile]
0.005 to 0.02 µM | 1 to 5 µM | 1 to 5 µM | 1 to 5 µM | > 0.1 µM | > 10 µM | > 10 µM | COc1ncccc1-c1cc2c(N3C[C@@H](C)[C@@](C#N)(C4CC4)C3=O)ccnn2c1 [Example 96, (3R,4S)-3-cyclopropyl-1-(6-(2-methoxypyridin-3-yl)pyrrolo[1,2-b]pyridazin-4-yl)-4-methyl-2-oxopyrrolidine-3-carbonitrile]
0.005 to 0.02 µM | 0.1 to 1 µM | 1 to 5 µM | 0.1 to 1 µM | > 0.1 µM | > 10 µM | 5 to 10 µM | C[C@@H]1CN(c2ccnn3cc(-c4nc5cnccc5s4)cc23)C(=O)[C@]1(C#N)C1CC1 [Example 102, (3R,4S)-3-cyclopropyl-4-methyl-2-oxo-1-(6-(thiazolo[4,5-c]pyridin-2-yl)pyrrolo[1,2-b]pyridazin-4-yl)pyrrolidine-3-carbonitrile trifluoroacetate]
